Laboratory results taken from BindingDB's records for patent US20240360134 (Actelion Pharmaceuticals, 2024).

How the values were obtained:
[1] = molecular target: Vascular endothelial growth factor receptor 2 (Homo sapiens, UniProt P35968); assay: VEGFR ADP GLO Assay
Method: Step 1. Dispensing inhibitors/controls: Using Echo, dispense 10 nL/well compound serial dilutions in DMSO to columns 1-22 (in 384-well plates) or columns 1-44 (in 1536-well plates). Dilution series=11 pt, 3-fold dilutions. The top compound concentration in the source plate is […]. The top compound concentration in the assay plate is 10 uM. Using Echo, dispense 10 nl/well DMSO to column 23 (in 384-well plates) or columns 45-47 (in 1536-well plates). These wells will serve as negative control wells Using Echo, dispense 10 nl/well 400 uM TAK-593 in DMSO to column 24 (in 384-well plates) or column 48 (in 1536-well plates). The final concentration of TAK-593 in the assay should be 1 uM. These wells will serve as positive control wells.Step 2. Pre-incubation of inhibitors with kinase: Add 2 μL/well 2× kinase solution. Centrifuge at 1000 rpm for 1 min. Incubate at room temperature for 30 min.Step 3. Kinase cascade reaction: Add 2 μL/well 2× substrate/ATP solution to initiate kinase reactions. Centrifuge at 1000 rpm for 1 min. Incubate at room temperature for 180 min.Final concentrations of components in the assay:[VEGFR2]=5 nM;[ATP]=1.2 mM;[Srctide]=1 mg/mL;[DMSO]≤1%.Step 4. Quench: Add 2 uL/well ADP Glo Reagent+0.05% CHAPS. Centrifuge at 1000 rpm for 1 min; Incubate at room temperature for one hour.Step 5. Detection: Add 2 uL/well Kinase Detection Reagent+0.05% CHAPS. Centrifuge at 1000 rpm for 1 min; Incubate at room temperature for 1 hour; Read Luminescence on a plate reader.

[2] = molecular target: T1, Platelet-derived growth factor receptor beta (Homo sapiens, UniProt P09619); assay: PDGFRβ HTRF Assay
T1 sequence (P09619 whole entry): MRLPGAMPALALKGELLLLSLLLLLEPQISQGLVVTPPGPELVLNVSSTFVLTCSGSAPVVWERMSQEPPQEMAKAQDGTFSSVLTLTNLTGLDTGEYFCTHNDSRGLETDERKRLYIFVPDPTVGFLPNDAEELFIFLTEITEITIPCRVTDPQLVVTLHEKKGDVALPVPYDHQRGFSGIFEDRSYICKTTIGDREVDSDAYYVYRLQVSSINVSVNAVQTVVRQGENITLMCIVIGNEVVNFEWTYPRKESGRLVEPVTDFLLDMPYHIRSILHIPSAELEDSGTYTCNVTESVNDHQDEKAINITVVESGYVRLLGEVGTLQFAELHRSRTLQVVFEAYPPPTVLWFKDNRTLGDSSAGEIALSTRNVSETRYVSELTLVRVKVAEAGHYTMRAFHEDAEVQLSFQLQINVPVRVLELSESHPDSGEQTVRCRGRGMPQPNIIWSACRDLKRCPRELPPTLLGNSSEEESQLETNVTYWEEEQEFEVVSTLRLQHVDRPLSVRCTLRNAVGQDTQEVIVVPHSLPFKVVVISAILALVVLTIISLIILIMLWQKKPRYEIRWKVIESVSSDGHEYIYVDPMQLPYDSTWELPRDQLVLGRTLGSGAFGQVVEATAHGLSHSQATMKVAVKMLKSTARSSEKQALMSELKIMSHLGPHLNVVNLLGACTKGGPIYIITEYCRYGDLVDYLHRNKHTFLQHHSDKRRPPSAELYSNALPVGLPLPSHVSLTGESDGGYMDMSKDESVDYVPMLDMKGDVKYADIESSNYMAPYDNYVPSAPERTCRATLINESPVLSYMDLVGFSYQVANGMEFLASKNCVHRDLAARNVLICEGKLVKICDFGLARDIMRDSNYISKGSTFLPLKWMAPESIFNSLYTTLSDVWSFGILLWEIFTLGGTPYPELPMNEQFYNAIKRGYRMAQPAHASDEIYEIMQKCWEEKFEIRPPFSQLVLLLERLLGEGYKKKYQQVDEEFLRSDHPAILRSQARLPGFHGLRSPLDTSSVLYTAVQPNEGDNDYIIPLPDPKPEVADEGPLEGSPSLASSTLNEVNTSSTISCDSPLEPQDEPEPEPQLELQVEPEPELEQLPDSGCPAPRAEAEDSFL
Method: PDGFRβ E+I pre-incubation: Add 2 μL 2× protein solution to columns 1-24 using the Multidrop Combi. Centrifuge at 1000 rpm for 1 min. Incubate 30 min at RTStep 2. Enzymatic reaction: Add 2 μL substrate solution to columns 1-24 to initiate the reaction using the Multidrop Combi; cover/seal the assay plate to reduce evaporation. Centrifuge at 1000 rpm for 1 min. […] Quench/Detection: Add 2 μl 3× quench/detection solution to columns 1-24 using the Multidrop Combi; cover/seal the plate. Centrifuge 1 min 1000 rpm. Incubate at RT for 60 min.

[3] = molecular target: T1, Platelet-derived growth factor receptor beta; assay: PDGFRβ LanthaScreen Assay
Method: Dispensing inhibitors: Using Echo, dispense 40 nL/well (or less) compound serial dilutions in DMSO onto the assay plate.Step 2. Dispensing Kinase-Tracer solution: Add 4 μL/well Kinase-Tracer solution. Seal the plate with optically transparent plate seal. […] Detection: Read TR-FRET signals after 18 hours incubation at room temperature.III. […] IC50 values are determined from a 4-parameter fit, using the following equation: Y=Bottom+(Top−Bottom)/(1+10((Log IC50−X)*Hill slope)), where X=log10 of the compound concentration; top can be defined by PC; bottom defined by NC.

Sequence of Vascular endothelial growth factor receptor 2 (P35968 whole entry): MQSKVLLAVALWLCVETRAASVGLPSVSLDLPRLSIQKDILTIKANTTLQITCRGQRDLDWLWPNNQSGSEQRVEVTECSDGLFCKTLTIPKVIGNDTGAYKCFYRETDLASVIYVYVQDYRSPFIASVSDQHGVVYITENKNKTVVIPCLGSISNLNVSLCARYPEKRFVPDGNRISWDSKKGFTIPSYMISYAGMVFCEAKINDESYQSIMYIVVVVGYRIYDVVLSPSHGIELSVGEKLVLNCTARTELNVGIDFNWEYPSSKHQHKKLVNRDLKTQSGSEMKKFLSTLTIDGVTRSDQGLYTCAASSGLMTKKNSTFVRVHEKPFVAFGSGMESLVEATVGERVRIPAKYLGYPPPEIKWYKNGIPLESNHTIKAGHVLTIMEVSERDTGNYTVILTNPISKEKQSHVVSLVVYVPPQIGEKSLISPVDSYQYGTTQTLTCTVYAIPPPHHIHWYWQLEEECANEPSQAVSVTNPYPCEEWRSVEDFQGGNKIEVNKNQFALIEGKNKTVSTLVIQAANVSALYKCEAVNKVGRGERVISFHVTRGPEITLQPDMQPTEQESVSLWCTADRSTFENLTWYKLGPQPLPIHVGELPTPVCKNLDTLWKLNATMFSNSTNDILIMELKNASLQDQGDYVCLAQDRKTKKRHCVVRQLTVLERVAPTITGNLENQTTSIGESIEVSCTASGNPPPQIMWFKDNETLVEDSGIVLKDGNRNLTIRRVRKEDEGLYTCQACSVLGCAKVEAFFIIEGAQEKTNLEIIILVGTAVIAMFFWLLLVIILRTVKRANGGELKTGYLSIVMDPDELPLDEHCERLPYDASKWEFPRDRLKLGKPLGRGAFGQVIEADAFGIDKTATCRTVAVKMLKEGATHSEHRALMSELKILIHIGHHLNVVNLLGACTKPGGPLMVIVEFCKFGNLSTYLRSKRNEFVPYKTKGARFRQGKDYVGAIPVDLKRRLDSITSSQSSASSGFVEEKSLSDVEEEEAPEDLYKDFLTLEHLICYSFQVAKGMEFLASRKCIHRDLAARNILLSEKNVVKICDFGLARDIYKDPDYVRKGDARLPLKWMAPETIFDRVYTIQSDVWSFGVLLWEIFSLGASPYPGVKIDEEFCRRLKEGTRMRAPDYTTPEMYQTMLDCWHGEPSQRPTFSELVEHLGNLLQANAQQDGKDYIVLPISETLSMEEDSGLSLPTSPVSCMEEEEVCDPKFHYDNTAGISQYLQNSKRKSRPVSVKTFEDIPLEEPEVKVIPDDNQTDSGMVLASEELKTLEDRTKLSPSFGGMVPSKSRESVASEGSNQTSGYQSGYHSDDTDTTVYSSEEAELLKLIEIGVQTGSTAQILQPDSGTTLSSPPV

Compound	IC50 [1] [nM]	IC50 [2] [nM]	IC50 [3] [nM]
Cc1ncc(NC(=O)CN2C[C@H](C)O[C@@H](C)C2)cc1Nc1nn(C)c2nc(Nc3cnn(C)c3)ncc12 (relative stereo) [US20240360134, Example 73]	4570	0.5	2.6
COC(=O)Cc1cccc(Nc2ncc3c(Nc4cc(C(=O)NCCN5CCCC5(C)C)cnc4C)nn(C)c3n2)c1 [US20240360134, Example 43]	2080	0.54	4.1
COC(=O)C(C)(C)c1cccc(Nc2ncc3c(Nc4cc(C(=O)NCCN5CCCC5(C)C)cnc4C)nn(C)c3n2)c1 [US20240360134, Example 46]	3580	0.81	4.9
Cc1ncc(NC(=O)CN2CCC[C@@H]2C)cc1Nc1nn(C)c2nc(Nc3cnn(C)c3)ncc12 [US20240360134, Example 71]	> 7500	0.25	2.1
Cc1ncc(NC(=O)CN2CCC(F)(F)CC2)cc1Nc1nn(C)c2nc(Nc3cnn(C)c3)ncc12 [US20240360134, Example 72]	1100	0.27	1.7
Cc1ncc(NC(=O)CN2CCC3(CC3)C2)cc1Nc1nn(C)c2nc(Nc3cnn(C)c3)ncc12 [US20240360134, Example 74]	5070	0.23	1.6
Cc1ncc(NC(=O)CN2CCC(F)(F)C2)cc1Nc1nn(C)c2nc(Nc3cnn(C)c3)ncc12 [US20240360134, Example 75]	847	0.35	2.1
Cc1ncc(NC(=O)CN2CC(F)(F)C2)cc1Nc1nn(C)c2nc(Nc3cnn(C)c3)ncc12 [US20240360134, Example 76]	3600	0.42	2.6
Cc1ncc(NC(=O)CN2C[C@@H](C)O[C@@H](C)C2)cc1Nc1nn(C)c2nc(Nc3cnn(C)c3)ncc12 [US20240360134, Example 78]	3930	0.59	3.7
Cc1ncc(NC(=O)CN(CCO)C2CCCC2)cc1Nc1nn(C)c2nc(Nc3cnn(C)c3)ncc12 [US20240360134, Example 79]	5390		2.5
Cc1ncc(NC(=O)CN(CCCO)C2CCCC2)cc1Nc1nn(C)c2nc(Nc3cnn(C)c3)ncc12 [US20240360134, Example 80]	> 7500	0.5	3.2
